Experimental data taken from patent US9266904B2, “6-bridged heteroaryldihydropyrimidines for the treatment and prophylaxis of hepatitis B virus infection” (priority 2013, dated 2016).
≈ marks a conversion by molar mass, not a printed value. Like-named read-outs stand apart in the source and are kept apart here.

Key:
[1] = Human microsomal clearance assay; assay type: in vitro ADME
Method: Microsomes were preincubated with test compound for 10 minutes at 37° C. in 100 mM phosphate buffer with pH 7.4. The reactions were initiated by adding NADPH regenerating system to give a final incubation volume of 400 μL. The incubations finally contained 1 μM test compound, 0.5 mg/mL liver microsomal protein, 3.0 mM glucose 6-phosphate, 1.0 mM NADP, 3.0 mM MgCl2 and 0.05 mg/mL glucose 6-phosphate dehydrogenase in 100 mM phosphate buffer with pH 7.4. After incubation times of 0, 3, 6, 9, 15 and 30 minutes, 50 μL, incubation was transferred to the quench solution containing the internal standard which was 2 μM tolbutamide. After precipitation and centrifugation, test compound concentrations in the samples were determined by LC-MS/MS. Controls of no NADPH regenerating system at zero and 30 minutes were also prepared and analyzed.

[2] = Lyophilisation solubility assay (Lysa); assay type: physicochemical; settings: thermodynamic from solid
Method: The aqueous solubility is an important physico-chemical property that plays a significant role in various physical and biological processes. It is desirable to have good solubility which enables good permeability and gastric and intestinal absorption, linear dose proportionality, less PK variability, and easy formulation for PD/PK studies. […] Lyophilisation solubility assay (Lysa) is a well adopted high throughput assay to measure compound solubility in industry.
Samples are prepared in duplicate from 10 mM DMSO stock solutions. After evaporation of DMSO with a centrifugal vacuum evaporator, the residue is solved in 0.05 M phosphate buffer (pH 6.5), stirred for one hour and then shook for two hours. After one night, the solution is filtered using a microtiter filter plate and then the filtrate and its 1/10 dilution are then analyzed by direct UV measurement or by HPLC-UV. In addition a four-point calibration curve is prepared from the 10 mM stock solutions and used for the solubility determination of the compounds. The results are in μg/ml. In case the percentage of sample measured in solution after evaporation divided by the calculated maximum of sample amount is bigger than 80% the solubility is reported as bigger than this value.

[3] = system: HBV replication in HepG2.2.15 cells; assay: Anti-HBV activity in vitro in HepG2.2.15 cells (extracellular HBV DNA by qPCR); assay type: cell-based; settings: Hepatitis B virus, HepG2.2.15, Anti-HBV activity in HepG2.2.15 cells; read-out: EC50
Summary of the method: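 EC50 is derived from qPCR of extracellular viral DNA in culture supernatant after 5-day compound exposure. Cells (HepG2.2.15, stably carrying the HBV genome) were plated and incubated overnight at 37 °C before half-log dilution series were added at 0.5% final DMSO.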

Structure (SMILES)	CLh ([1]; human, 1 μM, pH 7.4)	solubility thermodynamic ([2]; pH 6.5, aqueous buffer)	EC50 [3]	CLh ([1]; human microsomal clearance)	solubility thermodynamic ([2]; aqueous buffer, 0.05 M phosphate buffer (pH 6.5), reported as bigger than the value if more than 80% of the sample is in solution, read-out: Lysa)
COC(=O)C1=C(CN2C3COCC2C(C(=O)O)C3)NC(c2nccs2)=N[C@H]1c1ccc(F)cc1Cl (stereo partly drawn) [Example 6, 8-[(R)-6-(2-Chloro-4-fluoro-phenyl)-5-methoxycarbonyl-2-thiazol-2-yl-3,6-dihydro-pyrimidin-4-ylmethyl]-3-oxa-8-aza-bicyclo[3.2.1]octane-6-carboxylic acid]	0.5 mL/min/kg	> 665 µg/mL	32 nM	–	–
CCOC(=O)C1=C(CN2C3COCC2CC(CC(=O)O)C3)NC(c2nccs2)=N[C@H]1c1ccc(F)c(F)c1 (stereo partly drawn) [Example 29, (S)-6-(7-Carboxymethyl-3-oxa-9-aza-bicyclo[3.3.1]non-9-ylmethyl)-4-(3,4-difluoro-phenyl)-2-thiazol-2-yl-1,4-dihydro-pyrimidine-5-carboxylic acid ethyl ester]	1.7 mL/min/kg	> 600 µg/mL	34.3 nM	–	–
COC(=O)C1=C(CN2CC3(F)CC2(C(=O)O)C3)NC(c2nccs2)=N[C@H]1c1ccc(F)cc1Cl [Example 40, 2-[(R)-6-(2-Chloro-4-fluoro-phenyl)-5-methoxycarbonyl-2-thiazol-2-yl-3,6-dihydro-pyrimidin-4-ylmethyl]-4-fluoro-2-aza-bicyclo[2.1.1]hexane-1-carboxylic acid]	–	–	32 nM	1.4 mL/min/kg	> 634 µg/mL
COC(=O)C1=C(CN2[C@@H]3COC[C@H]2CC(OCC(=O)O)C3)NC(c2nccs2)=N[C@H]1c1ccc(F)cc1Cl (stereo partly drawn) [Example 46, 2-[[(1R,5S)-9-[[(4R)-4-(2-chloro-4-fluoro-phenyl)-5-methoxycarbonyl-2-thiazol-2-yl-1,4-dihydropyrimidin-6-yl]methyl]-3-oxa-9-azabicyclo[3.3.1]nonan-7-yl]oxy]acetic acid]	4.0 mL/min/kg	> 685 µg/mL	86.6 nM	–	–
COC(=O)C1=C(CN2C3COCC2CN(C(=O)CO)C3)NC(c2nccs2)=N[C@H]1c1ccc(F)cc1Br [Example 53, Methyl (4R)-4-(2-bromo-4-fluoro-phenyl)-6-[[7-(2-hydroxyacetyl)-3-oxa-7,9-diazabicyclo[3.3.1]nonan-9-yl]methyl]-2-thiazol-2-yl-1,4-dihydropyrimidine-5-carboxylate]	7.0 mL/min/kg	163 µg/mL (≈ 274 µM)	16.8 nM	–	–
COC(=O)C1=C(CN2[C@@H]3COC[C@H]2C[C@@H](CC(=O)O)C3)NC(c2nccs2)=N[C@H]1c1cccc(F)c1Cl [Example 55, 2-[(1R,5)-9-[[(4R)-4-(2-chloro-3-fluoro-phenyl)-5-methoxycarbonyl-2-thiazol-2-yl-1,4-dihydropyrimidin-6-yl]methyl]-3-oxa-9-azabicyclo[3.3.1]nonan-7-yl]acetic acid]	0 mL/min/kg	505 µg/mL (≈ 920 µM)	22.3 nM	–	–
CCOC(=O)C1=C(CN2[C@@H]3COC[C@H]2C[C@H](CC(=O)O)C3)NC(c2nccs2)=N[C@H]1c1cccc(F)c1F [Example 75, Exo-2-[(1S,5R)-9-[[(4R)-4-(2,3-difluorophenyl)-5-ethoxycarbonyl-2-thiazol-2-yl-1,4-dihydropyrimidin-6-yl]methyl]-3-oxa-9-azabicyclo[3.3.1]nonan-7-yl]acetic acid]	1.0 mL/min/kg	> 656 µg/mL	29.1 nM	–	–
COC(=O)C1=C(CN2[C@@H]3COC[C@H]2C[C@H](CC(=O)O)C3)NC(c2nccs2)=N[C@H]1c1ccccc1Br [Example 76, Exo-2-[(1S,5R)-9-[[(4R)-4-(2-bromophenyl)-5-methoxycarbonyl-2-thiazol-2-yl-1,4-dihydropyrimidin-6-yl]methyl]-3-oxa-9-azabicyclo[3.3.1]nonan-7-yl]acetic acid]	3.3 mL/min/kg	> 706 µg/mL	31 nM	–	–
COC(=O)C1=C(CN2[C@@H]3COC[C@H]2CN(C(=O)C(C)(C)C(=O)O)C3)NC(c2nccs2)=N[C@H]1c1ccc(F)cc1Cl [Example 79, 3-[(1S,5R)-9-[[(4R)-4-(2-chloro-4-fluoro-phenyl)-5-methoxycarbonyl-2-thiazol-2-yl-1,4-dihydropyrimidin-6-yl]methyl]-3-oxa-7,9-diazabicyclo[3.3.1]nonan-7-yl]-2,2-dimethyl-3-oxo-propanoic acid]	3.5 mL/min/kg	> 745 µg/mL	293 nM	–	–
COC(=O)C1=C(CN2[C@H]3CC[C@]2(C(=O)O)COC3)NC(c2nccs2)=N[C@H]1c1ccc(F)cc1Cl [Example 81, (1S,5R)-8-[[(4R)-4-(2-chloro-4-fluoro-phenyl)-5-methoxycarbonyl-2-thiazol-2-yl-1,4-dihydropyrimidin-6-yl]methyl]-3-oxa-8-azabicyclo[3.2.1]octane-5-carboxylic acid]	0 mL/min/kg	> 673 µg/mL	40.5 nM	–	–
COC(=O)C1=C(CN2[C@H]3CC[C@]2(C(=O)O)COC3)NC(c2nccs2)=N[C@H]1c1ccc(F)c(F)c1C [Example 84, (1S,5R)-8-[[(4S)-4-(3,4-difluoro-2-methyl-phenyl)-5-methoxycarbonyl-2-thiazol-2-yl-1,4-dihydropyrimidin-6-yl]methyl]-3-oxa-8-azabicyclo[3.2.1]octane-5-carboxylic acid]	0 mL/min/kg	> 643 µg/mL	37.6 nM	–	–
COC(=O)C1=C(CN2[C@@H]3C[C@H](CC(=O)O)C[C@H]2C(F)(F)C3)NC(c2nccs2)=N[C@H]1c1ccc(F)cc1Cl [Example 86, 2-[(1R,3S,5S)-8-[[(4R)-4-(2-chloro-4-fluoro-phenyl)-5-methoxycarbonyl-2-thiazol-2-yl-1,4-dihydropyrimidin-6-yl]methyl]-6,6-difluoro-8-azabicyclo[3.2.1]octan-3-yl]acetic acid]	0 mL/min/kg	149 µg/mL (≈ 262 µM)	2 nM	–	–
COC(=O)C1=C(CN2[C@H]3COC[C@@H]2[C@@H](F)[C@H](CC(=O)O)C3)NC(c2nccs2)=N[C@H]1c1cccc(F)c1Cl [Example 101, 2-[(1R,5R,6S,7S)-9-[[(4R)-4-(2-chloro-3-fluoro-phenyl)-5-methoxycarbonyl-2-thiazol-2-yl-1,4-dihydropyrimidin-6-yl]methyl]-6-fluoro-3-oxa-9-azabicyclo[3.3.1]nonan-7-yl]acetic acid]	0 mL/min/kg	580 µg/mL (≈ 1020 µM)	24 nM	–	–
CCOC(=O)C1=C(CN2[C@@H]3COC[C@H]2[C@H](F)[C@@H](CC(=O)O)C3)NC(c2nccs2)=N[C@H]1c1ccccc1Cl [Example 102, 2-[(1S,5S,6R,7R)-9-[[(4R)-4-(2-chlorophenyl)-5-ethoxycarbonyl-2-thiazol-2-yl-1,4-dihydropyrimidin-6-yl]methyl]-6-fluoro-3-oxa-9-azabicyclo[3.3.1]nonan-7-yl]acetic acid]	3.0 mL/min/kg	410 µg/mL (≈ 728 µM)	66 nM	–	–
CCOC(=O)C1=C(CN2[C@H]3COC[C@@H]2[C@@H](F)[C@H](CC(=O)O)C3)NC(c2nccs2)=N[C@H]1c1ccccc1Cl [Example 103, 2-[(1R,5R,6S,7S)-9-[[(4R)-4-(2-chlorophenyl)-5-ethoxycarbonyl-2-thiazol-2-yl-1,4-dihydropyrimidin-6-yl]methyl]-6-fluoro-3-oxa-9-azabicyclo[3.3.1]nonan-7-yl]acetic acid]	0 mL/min/kg	345 µg/mL (≈ 613 µM)	274 nM	–	–
